Data on two molecules can be found in patent US10913774B2, “Cyclic peptide binder against oncogenic K-Ras” (California Institute of Technology, priority 2015, dated 2021).

“Also recorded” adds a separate entry of the source.

The target in assay [1] is T1, K-Ras G12D (Homo sapiens, UniProt P01116, G12D). Put plainly: Western blot of K-Ras G12D protein levels in Panc 08.13 cancer cells after peptide treatment. The format is cell-based. To be noted: Panc 08.13 cells (homozygous K-Ras G12D), 30 minutes treatment, 0.3 mM. The source says:
Example 5. Degradation of K-Ras G12D using Cyclic Peptides. […] Proteolysis-targeting chimeras (PROTACs) using Hif and other proteins are described in Toure and Crews, 2016, Angew. Chem. Int. Ed, 55:2-10, the entire contents of which are incorporated herein by reference. The 7b-Hif PROTAC was further conjugated with the HIV-TAT cell-penetrating peptide […] (SEQ ID NO: 24).
Cell culture. Panc 08.13 cell lines were purchased from American Type Culture collection and cultured as specified by the provider.
Immunoblotting. Western blots were performed according to standard protocols. Briefly, cells were lysed with cell lysis buffer (Cell Signaling Technology) containing protease and phosphatase inhibitors (Cell Signaling Technology). Cell lysates were quantified with a Bradford protein assay (Thermo Scientific) and prepared for gel electrophoresis in Laemmli sample buffer and reducing agent. 20 μg of cell lysate were added to precast polyacrylamide gels (Bio-Rad) and proteins were separated by electrophoresis followed by transfer to PVDF membrane. Membranes were then blocked and probed with an anti-Ras or anti-Tubulin primary antibody followed by horseradish peroxidase-conjugated secondary antibody (Cell Signaling Technology). The bands were visualized by chemiluminescence (Thermo Scientific).
In general terms: A western blot detects proteins with antibodies after separation by electrophoresis.

Assay [2] concerns the target T1, K-Ras G12D. Put plainly: ELISA binding assay of biotinylated cyclic peptides to K-Ras G12D. For orientation: In an ELISA, binding on a coated surface is turned into a signal by an enzyme label.
Description: For ELISA assays, 1 μM of the biotinylated hit peptides were first immobilized onto Neutravidin ELISA plates (Pierce) for 2 hours at room temperature in binding buffer (TBST with 0.1% BSA). […] After washing three times with TBST the plate was then treated with a 1:1000 dilution of the anti-RAS rabbit mAb (Cell Signaling Technology) in binding buffer for thirty minutes, washed three times with TBST, incubated with anti-Rabbit-HRP secondary antibody (Cell Signaling Technology) for thirty minutes and developed with TMB substrate (KPL) for five to ten minutes. The absorbance of samples at 450 nm wavelength was measured using a spectrophotometer.

As to `CC(C)C[C@@H]1NC(=O)[C@@H](N)Cc2cn(nn2)CCCC[C@@H](C(=O)NCCCOCCOCCOCCCNC(=O)CCCC[C@@H]2SC[C@@H]3NC(=O)N[C@@H]32)NC(=O)[C@H](CCCNC(=N)N)NC(=O)[C@@H]2CCCN2C(=O)CNC(=O)[C@H](CCCNC(=N)N)NC1=O` [7b5, Pra-LRGPR-Az4-PEG-Biotin], the “levels of K-Ras G12D protein by Western blot” value at K-Ras G12D [1] is recorded as “induce proteasomal degradation of K-Ras G12D”.

Turning to `CC(C)C[C@@H]1NC(=O)[C@@H](N)Cc2cn(nn2)CCCC[C@@H](C(=O)NCCCOCCOCCOCCCNC(=O)CCCC[C@@H]2SC[C@@H]3NC(=O)N[C@@H]32)NC(=O)[C@H](CCCNC(=N)N)NC(=O)[C@H](CC(=O)O)NC(=O)CNC(=O)[C@H](CCCNC(=N)N)NC1=O` [7b, Pra-LRGDR-Az4-PEG-Biotin], the “binding to K-Ras G12D in ELISA (absorbance units), result in words” value on K-Ras G12D [2] is reported as “strongest binding fluorescence; also recorded: highest affinity”.
